Holding throughout (assay type): biochemical
The target in one assay is KRAS G13D (Homo sapiens (Human), UniProt P01116+P62937, G13D). Briefly: Ras-Raf (BRAF RBD) disruption / FRET / MOA assay, KRAS G13D. The settings on record: read-out: IC50* KRAS G13D FRET data. Put shortly:
(§1)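 A 10-point, 3-fold dilution series topping at 30 μM final was incubated 3 h at 25° C with the Ras/cyclophilin A/BRAF RBD mixture.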

A further assay concerns the target NRAS Q61R (Homo sapiens (Human), UniProt P01111+P62937, Q61R). The experiment in a line: Ras-Raf (BRAF RBD) disruption / FRET / MOA assay, NRAS Q61R. The settings on record: NRAS Q61R; Ras-Raf disruption/FRET/MOA assay; read-out: IC50* NRAS Q61R FRET data. Put shortly:
(§2)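 Compounds (30 μM top final, 10-point 3-fold dilutions) incubated 3 h at 25° C with nucleotide-loaded Ras, cyclophilin A and BRAF RBD. Detection with 10 nM anti-His Eu-W1024 and 50 nM anti-GST allophycocyanin over another 1.5 h. Lowered TR-FRET ratio relative to DMSO wells gives IC50.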

A further assay deals with K-Ras G13C (Homo sapiens (Human), UniProt P01116+P62937, G13C). Briefly: Ras-Raf (BRAF RBD) disruption / FRET / MOA assay, KRAS G13C. Conditions: KRAS G13C; Ras-Raf disruption/FRET/MOA assay; read-out: IC50* KRAS G13C FRET data. The method, boiled down: as §1
Sequence of K-Ras G13C (P01116-2 other isoform, or with tags, fused parts or gaps G13C): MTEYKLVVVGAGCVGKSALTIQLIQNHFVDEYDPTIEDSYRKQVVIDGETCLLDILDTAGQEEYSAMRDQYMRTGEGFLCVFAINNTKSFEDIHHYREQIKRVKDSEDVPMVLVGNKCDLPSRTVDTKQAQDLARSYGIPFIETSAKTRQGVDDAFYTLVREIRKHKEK
Sequence of K-Ras G13C (P62937 whole entry): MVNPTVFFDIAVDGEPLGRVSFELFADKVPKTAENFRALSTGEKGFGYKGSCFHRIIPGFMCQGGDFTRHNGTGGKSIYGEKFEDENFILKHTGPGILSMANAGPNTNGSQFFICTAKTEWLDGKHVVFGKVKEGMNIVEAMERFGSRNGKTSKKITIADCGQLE
The target of a further assay is KRAS WT (Homo sapiens (Human), UniProt P01116+P62937). Briefly: Ras-Raf (BRAF RBD) disruption / FRET / MOA assay, KRAS WT. Conditions: read-out: IC50* KRAS WT FRET data. The method, boiled down: as §1
Sequence of KRAS WT (P01116-2 other isoform, or with tags, fused parts or gaps): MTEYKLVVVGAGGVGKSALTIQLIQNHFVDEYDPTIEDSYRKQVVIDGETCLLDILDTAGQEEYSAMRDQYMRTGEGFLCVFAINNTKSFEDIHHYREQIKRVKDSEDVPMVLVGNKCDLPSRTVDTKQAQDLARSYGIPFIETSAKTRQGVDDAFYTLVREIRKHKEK
Sequence of KRAS WT (P62937 whole entry): as the sequence (P62937 whole entry) above
The next assay concerns the target NRAS G12C (Homo sapiens (Human), UniProt P01111+P62937, G12C). The experiment in a line: Ras-Raf (BRAF RBD) disruption / FRET / MOA assay, NRAS G12C. The settings on record: read-out: IC50* NRAS G12C FRET data. Put shortly:
as §1

The next assay concerns the target K-Ras G12C (Homo sapiens (Human), UniProt P01116+P62937, G12C). The experiment in a line: Ras-Raf (BRAF RBD) disruption / FRET / MOA assay, KRAS G12C. The settings on record: KRAS G12C; Ras-Raf disruption/FRET/MOA assay; read-out: IC50* KRAS G12C FRET data. Put shortly: as §1
Another assay concerns the target NRAS WT (Homo sapiens (Human), UniProt P01111+P62937). Briefly: Ras-Raf (BRAF RBD) disruption / FRET / MOA assay, NRAS WT. Conditions: read-out: IC50* NRAS WT FRET data. The method, boiled down: as §2

In US11566007B2, “Ras inhibitors” (Revolution Medicines, Inc., priority 2019, dated 2023) one finds IC50 data, which are given here for twelve molecules.

pIC50: −log10 of the molar value. Some results are limits rather than exact numbers.

Sequence of KRAS G13D (P01116-2 other isoform, or with tags, fused parts or gaps G13D): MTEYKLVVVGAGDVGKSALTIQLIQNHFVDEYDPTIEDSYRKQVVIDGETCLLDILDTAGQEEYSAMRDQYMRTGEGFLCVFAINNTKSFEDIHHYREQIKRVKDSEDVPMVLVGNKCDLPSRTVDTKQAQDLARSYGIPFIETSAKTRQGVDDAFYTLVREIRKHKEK
Sequence of KRAS G13D (P62937 whole entry): as the sequence (P62937 whole entry) above
Sequence of NRAS WT (P01111 whole entry): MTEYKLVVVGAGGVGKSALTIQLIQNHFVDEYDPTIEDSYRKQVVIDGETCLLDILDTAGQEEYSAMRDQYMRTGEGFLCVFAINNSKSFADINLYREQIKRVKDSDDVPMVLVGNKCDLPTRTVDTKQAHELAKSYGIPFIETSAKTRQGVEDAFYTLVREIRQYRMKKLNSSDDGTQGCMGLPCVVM
Sequence of NRAS WT (P62937 whole entry): as the sequence (P62937 whole entry) above
Sequence of NRAS G12C (P01111 whole entry G12C): as the sequence (P01111 whole entry) above, with G12C counted along it
Sequence of NRAS G12C (P62937 whole entry): as the sequence (P62937 whole entry) above
Sequence of K-Ras G12C (P01116-2 other isoform, or with tags, fused parts or gaps G12C): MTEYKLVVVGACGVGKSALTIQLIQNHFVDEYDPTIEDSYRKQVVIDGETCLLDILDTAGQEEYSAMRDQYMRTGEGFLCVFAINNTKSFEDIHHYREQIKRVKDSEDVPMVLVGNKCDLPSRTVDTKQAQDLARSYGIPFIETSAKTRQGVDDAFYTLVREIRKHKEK
Sequence of K-Ras G12C (P62937 whole entry): as the sequence (P62937 whole entry) above
Sequence of NRAS Q61R (P01111 whole entry Q61R): as the sequence (P01111 whole entry) above, with Q61R counted along it
Sequence of NRAS Q61R (P62937 whole entry): as the sequence (P62937 whole entry) above

In the case of `CCn1c(-c2cccnc2[C@H](C)OC)c2c3cc(ccc31)-c1csc(n1)C[C@H](NC(=O)[C@H](C(C)C)N(C)C(=O)N1CCCOC13CN(C(=O)C#CC(C)(C)N(C)C)C3)C(=O)N1CCC[C@H](N1)C(=O)OCC(C)(C)C2` (atropisomer, axis not shown) [Example A666], the pIC50 at KRAS G13D was less than 5.00; at NRAS Q61R it was less than 5.00; on K-Ras G13C it was less than 5.00; at KRAS WT, less than 5.00; on NRAS G12C, 5.00 to 6.00; on K-Ras G12C, 5.00 to 6.00. Besides, the pIC50 on NRAS WT is less than 5.00.

Regarding `C=CC(=O)N(C)[C@@H]1C[C@@H](C)N(C(=O)N(C)[C@H](C(=O)N[C@H]2Cc3nc(cs3)-c3ccc4c(c3)c(c(-c3cccnc3[C@H](C)OC)n4CC)CC(C)(C)COC(=O)[C@@H]3CCCN(N3)C2=O)C(C)C)C1` (atropisomer, axis not shown) [Example A634], the pIC50 at KRAS G13D is 5.00 to 6.00; at NRAS Q61R, 6.00 to 7.00; at K-Ras G13C, 6.00 to 7.00; on KRAS WT it was 6.00 to 7.00; on NRAS G12C it was 7.00 to 8.00; at K-Ras G12C it was 7.00 to 8.00. Besides, the pIC50 at NRAS WT is 6.00 to 7.00.

`C=CC(=O)N1CCCC2(CCN(C(=O)N(C)[C@H](C(=O)N[C@H]3Cc4nc(cs4)-c4ccc5c(c4)c(c(-c4cccnc4[C@H](C)OC)n5CC)CC(C)(C)COC(=O)[C@@H]4CCCN(N4)C3=O)C(C)C)CC2)C1` (atropisomer, axis not shown) [Example A635]: the pIC50 at KRAS G13D was 5.00 to 6.00; on NRAS Q61R, 6.00 to 7.00; at K-Ras G13C, 6.00 to 7.00; on KRAS WT, 6.00 to 7.00; on NRAS G12C it was 6.00 to 7.00; on K-Ras G12C it was 6.00 to 7.00. Besides, the negative logarithm of the IC50 (pIC50) at NRAS WT is 6.00 to 7.00.

Regarding `CCn1c(-c2cccnc2[C@H](C)OC)c2c3cc(ccc31)-c1cccc(c1)C[C@H](NC(=O)[C@H](C(C)C)N1CC[C@]3(CCN(C(=O)C#C[C@H]4COCCN4C4COC4)C3)C1=O)C(=O)N1CCC[C@H](N1)C(=O)OCC(C)(C)C2` (atropisomer, axis not shown) [Example A568], the pIC50 at KRAS G13D is less than 5.00; at NRAS Q61R it was less than 5.00; on K-Ras G13C it was 5.00 to 6.00; on KRAS WT, less than 5.00; at NRAS G12C, 6.00 to 7.00; at K-Ras G12C, 7.00 to 8.00. The pIC50 at NRAS WT is less than 5.00.

Take `CCn1c(-c2cccnc2[C@H](C)OC)c2c3cc(ccc31)-c1csc(n1)C[C@H](NC(=O)[C@H](C(C)C)N(C)C(=O)N1C[C@@H]3CN(C(=O)C#CC(C)(C)N(C)C)CC[C@@H]31)C(=O)N1CCC[C@H](N1)C(=O)OCC(C)(C)C2` (atropisomer, axis not shown) [Example A625]: the pIC50 at KRAS G13D is 5.00 to 6.00; on NRAS Q61R, 6.00 to 7.00; on K-Ras G13C, 6.00 to 7.00; at KRAS WT, 6.00 to 7.00; on NRAS G12C it was 6.00 to 7.00; on K-Ras G12C, 6.00 to 7.00. Besides, at NRAS WT, the pIC50 is 6.00 to 7.00.

In the case of `CCn1c(-c2cccnc2[C@H](C)OC)c2c3cc(ccc31)-c1cccc(c1)C[C@H](NC(=O)[C@@H](COC1CN(C(=O)C#CC(C)(C)N(C)C3CC3)C1)C(C)C)C(=O)N1CCC[C@H](N1)C(=O)OCC(C)(C)C2` (atropisomer, axis not shown) [Example A613], the pIC50 at KRAS G13D is less than 5.00; on NRAS Q61R, less than 5.00; at K-Ras G13C it was less than 5.00; on KRAS WT it was less than 5.00; at NRAS G12C, 5.00 to 6.00; on K-Ras G12C, 6.00 to 7.00. In addition, the pIC50 on NRAS WT is less than 5.00.

As for `C=CC(=O)N(C)CCN1CCN(C(=O)N(C)[C@H](C(=O)N[C@H]2Cc3cccc(c3)-c3ccc4c(c3)c(c(-c3cccnc3[C@H](C)OC)n4CC)CC(C)(C)COC(=O)[C@@H]3CCCN(N3)C2=O)C(C)C)C[C@H]1C` (atropisomer, axis not shown) [Example A553], the negative-log IC50 (pIC50) is 5.00 to 6.00 at KRAS G13D; 5.00 to 6.00 at NRAS Q61R; 7.00 to 8.00 at K-Ras G13C; 6.00 to 7.00 on KRAS WT; 6.00 to 7.00 on NRAS G12C; 6.00 to 7.00 on K-Ras G12C. Further, at NRAS WT, the pIC50 was 5.00 to 6.00.

Turning to `C=CC(=O)N1CC[C@H](C(=O)N(C)[C@H](C(=O)N[C@H]2Cc3csc(n3)-c3ccc4c(c3)c(c(-c3cccnc3[C@H](C)OC)n4CC)CC(C)(C)COC(=O)[C@@H]3CCCN(N3)C2=O)C(C)C)C1` (atropisomer, axis not shown) [Example A330], the pIC50 at KRAS G13D was 5.00 to 6.00; on NRAS Q61R, 5.00 to 6.00; at K-Ras G13C it was 5.00 to 6.00; at KRAS WT, 5.00 to 6.00; on NRAS G12C, 6.00 to 7.00; at K-Ras G12C, 6.00 to 7.00. The negative-log IC50 (pIC50) on NRAS WT is 5.00 to 6.00.

For the molecule `CCn1c(-c2cccnc2[C@H](C)OC)c2c3cc(ccc31)-c1csc(n1)C[C@H](NC(=O)[C@H](C(C)C)N(C)C(=O)N1CCC13CN(C(=O)/C=C/CN1CCOCC1)C3)C(=O)N1CCC[C@H](N1)C(=O)OCC(C)(C)C2` (atropisomer, axis not shown) [Example A611], the pIC50 is 6.00 to 7.00 on KRAS G13D; 7.00 to 8.00 at NRAS Q61R; 6.00 to 7.00 at K-Ras G13C; 6.00 to 7.00 at KRAS WT; 6.00 to 7.00 on NRAS G12C; 6.00 to 7.00 on K-Ras G12C. Moreover, at NRAS WT, the pIC50 is 6.00 to 7.00.

Consider `C=CC(=O)N1CC[C@H](C(=O)N(C)[C@H](C(=O)N[C@H]2CN3CCC=C(C3)c3ccc4c(c3)c(c(-c3cccnc3[C@H](C)OC)n4CC)CC(C)(C)COC(=O)[C@@H]3CCCN(N3)C2=O)C(C)C)C1` (atropisomer, axis not shown) [Example A716, (3S)-1-acryloyl-N-((2S)-1-(((6^3S,4S)-1^1-ethyl-1^2-(2-((S)-1-methoxyethyl)pyridin-3-yl)-10,10-dimethyl-5,7-dioxo-2^1,2^2,2^3,2^6,6^1,6^2,6^3,6^4,6^5,6^6-decahydro-1^1H-8-oxa-1(5,3)-indola-6(1,3)-pyridazina-2(5,1)-pyridinacycloundecaphane-4-yl)amino)-3-methyl-1-oxobutan-2-yl)-N-methylpyrrolidine-3-carboxamide], for which the pIC50 is less than 5.00 on KRAS G13D; less than 5.00 on NRAS Q61R; 5.00 to 6.00 at K-Ras G13C; 5.00 to 6.00 on KRAS WT; 6.00 to 7.00 on NRAS G12C; 6.00 to 7.00 at K-Ras G12C. Besides, the pIC50 on NRAS WT is 5.00 to 6.00.

Turning to `C=CC(=O)N1CC[C@H](C(=O)N(C)[C@H](C(=O)N[C@H]2Cc3cc(O)cc(c3)-c3ccc4c(c3)c(c(-c3c(C)cccc3C)n4CC)CC(C)(C)COC(=O)[C@@H]3CCCN(N3)C2=O)C(C)C)C1` [Example A226], the pIC50 at KRAS G13D is less than 5.00; at NRAS Q61R, less than 5.00; at K-Ras G13C, less than 5.00; at KRAS WT, less than 5.00; at NRAS G12C, 6.00 to 7.00; at K-Ras G12C, 6.00 to 7.00. Also, the negative-log IC50 (pIC50) on NRAS WT was less than 5.00.

Take `C=CC(=O)N1CCO[C@H]2CN(C(=O)N(C)[C@H](C(=O)N[C@H]3Cc4nc(n(C)n4)-c4ccc5c(c4)c(c(-c4cccnc4[C@H](C)OC)n5CC(F)(F)F)CC(C)(C)COC(=O)[C@@H]4CCCN(N4)C3=O)C(C)C)C[C@H]21` (atropisomer, axis not shown) [Example A575]: the pIC50 was 5.00 to 6.00 at KRAS G13D; 6.00 to 7.00 at NRAS Q61R; 7.00 to 8.00 on K-Ras G13C; 6.00 to 7.00 at KRAS WT; 7.00 to 8.00 on NRAS G12C; 7.00 to 8.00 on K-Ras G12C. Besides, the pIC50 at NRAS WT is 6.00 to 7.00.
